Source: patent US9855268B2, “Triazolo[4,5-d]pyrimidine derivatives” (Merck Patent GmbH, priority 2013, dated 2018)

target: GCN2 (Homo sapiens, UniProt Q9P2K8); experiment: GCN2 enzyme assay (TR-FRET Lanthascreen, GFP-eIF2alpha phosphorylation); format: biochemical; conditions: 10 μM ATP, 80 nM GFP-eIF2a, 30 nM GCN2
Text: GCN2: Assay Principle & Conditions
This assay can quantificate the activity of the serin kinase GCN2 (general control non-derepressible-2).
This kinase is involved in the stress metabolism of cells. It is activated upon starvation (amino acid depletion). Its natural substrate is eIF2a (eukaryotic initiation factor 2 alpha subunit), a translation factor, which gets activated (phosphorylated) by GCN2 in case of an amino acid bottleneck in the cells. This in turn leads to a halt of the protein synthesis. Inhibition of GCN2 results in stopping this mechanism: The cell can not stop protein production upon “starvation” stress.
The assay is run in two steps: the enzymatic reaction and the detection step. In the first step GCN2 is incubated with 10 μM ATP and 80 nM of the GFP-labelled substrate eIF2alpha at room temperature.
The enzymatic reaction is stopped by addition of EDTA. The amount of phosphorylated eIF2alpha is determined by TR-FRET (Lanthascreen): A complex is formed consisting of antibody and GFP labelled phospho-eIF2a, which allows a FRET upon exitation at 340 nm.
Final Concentrations in the Enzymatic Reaction

Sequence of GCN2 (Q9P2K8 whole entry, species assumed): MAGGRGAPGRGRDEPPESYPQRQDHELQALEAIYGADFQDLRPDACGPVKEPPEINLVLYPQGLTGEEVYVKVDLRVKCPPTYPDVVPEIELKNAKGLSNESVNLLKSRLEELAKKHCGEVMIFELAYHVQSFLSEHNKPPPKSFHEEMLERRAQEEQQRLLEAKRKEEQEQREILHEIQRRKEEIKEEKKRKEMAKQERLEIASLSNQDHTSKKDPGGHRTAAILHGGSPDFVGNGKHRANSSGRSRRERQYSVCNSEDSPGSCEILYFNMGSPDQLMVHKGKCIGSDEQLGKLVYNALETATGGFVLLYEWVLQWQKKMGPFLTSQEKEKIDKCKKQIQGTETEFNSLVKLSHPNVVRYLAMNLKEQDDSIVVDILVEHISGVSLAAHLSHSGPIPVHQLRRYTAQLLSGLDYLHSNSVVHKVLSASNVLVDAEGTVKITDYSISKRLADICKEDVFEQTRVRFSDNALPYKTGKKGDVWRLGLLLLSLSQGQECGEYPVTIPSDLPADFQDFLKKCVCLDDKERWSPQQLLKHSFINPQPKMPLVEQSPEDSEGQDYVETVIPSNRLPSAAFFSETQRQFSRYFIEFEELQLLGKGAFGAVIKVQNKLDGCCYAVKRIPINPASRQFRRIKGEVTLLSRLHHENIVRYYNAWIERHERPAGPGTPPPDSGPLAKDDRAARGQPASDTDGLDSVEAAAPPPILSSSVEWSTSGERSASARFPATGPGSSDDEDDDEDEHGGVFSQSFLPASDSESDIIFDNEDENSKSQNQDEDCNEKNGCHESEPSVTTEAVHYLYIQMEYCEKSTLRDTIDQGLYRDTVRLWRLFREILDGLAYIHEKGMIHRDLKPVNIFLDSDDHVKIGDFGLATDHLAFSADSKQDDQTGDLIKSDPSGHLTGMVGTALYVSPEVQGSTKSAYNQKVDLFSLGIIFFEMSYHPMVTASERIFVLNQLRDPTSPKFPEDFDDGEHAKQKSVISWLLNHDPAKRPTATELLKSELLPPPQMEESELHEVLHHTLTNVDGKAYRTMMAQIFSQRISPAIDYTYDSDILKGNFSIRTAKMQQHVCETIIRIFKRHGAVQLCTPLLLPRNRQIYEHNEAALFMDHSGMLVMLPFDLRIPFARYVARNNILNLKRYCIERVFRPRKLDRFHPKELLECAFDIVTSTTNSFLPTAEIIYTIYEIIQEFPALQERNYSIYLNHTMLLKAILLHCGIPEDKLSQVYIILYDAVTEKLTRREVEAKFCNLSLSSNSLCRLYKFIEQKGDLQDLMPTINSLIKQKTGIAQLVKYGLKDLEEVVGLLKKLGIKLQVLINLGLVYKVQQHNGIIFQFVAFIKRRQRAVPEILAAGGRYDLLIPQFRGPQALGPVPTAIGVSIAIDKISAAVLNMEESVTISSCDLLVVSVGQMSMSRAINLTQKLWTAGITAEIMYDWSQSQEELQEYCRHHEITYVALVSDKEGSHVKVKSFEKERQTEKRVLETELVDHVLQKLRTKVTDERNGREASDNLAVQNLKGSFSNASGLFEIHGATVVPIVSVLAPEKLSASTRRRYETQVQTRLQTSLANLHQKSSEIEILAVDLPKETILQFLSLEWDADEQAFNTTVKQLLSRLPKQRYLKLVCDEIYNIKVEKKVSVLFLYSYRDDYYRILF

Structure (SMILES)	IC50 [µM]
COc1ccc(-n2nnc3cnc(N[C@H]4CC[C@H](NC(=O)OC(C)(C)C)C4)nc32)cc1 (racemic) [A35, {trans-3-[3-(4-methoxy-phenyl)-3H-[1,2,3]triazolo[4,5-d]pyrimidin-5-ylamino]-cyclopentyl}-carbamic acid tert-butyl ester]	5 to 10
COc1ccc(-n2nnc3cnc(N[C@H]4CC[C@@H](O)C4)nc32)cc1 (relative stereo) [A27, cis-3-[3-(4-methoxy-phenyl)-3H-[1,2,3]triazolo[4,5-d]pyrimidin-5-ylamino]-cyclopentanol]	1 to 5
COc1ccc(-n2nnc3cnc(N[C@@H]4CC[C@](O)(C(F)(F)F)C4)nc32)cc1 (relative stereo) [A67, trans-3-[3-(4-methoxy-phenyl)-3H-[1,2,3]triazolo[4,5-d]pyrimidin-5-ylamino]-1-trifluoromethyl-cyclopentanol]	1 to 5
COCCn1cc(-n2nnc3cnc(N[C@@H]4CCC[C@@H](C(N)=O)C4)nc32)cn1 (relative stereo) [A165, (trans)-3-{3-[1-(2-methoxy-ethyl)-1H-pyrazol-4-yl]-3H-[1,2,3]triazolo[4,5-d]pyrimidin-5-ylamino}-cyclohexanecarboxylic acid amide]	1 to 5
COc1ccc(-n2nnc3cnc(NC4CCOCC4)nc32)cc1 [A3, [3-(4-methoxy-phenyl)-3H-[1,2,3]triazolo[4,5-d]pyrimidin-5-yl]-(tetrahydro-pyran-4-yl)-amine]	1 to 5
COc1ccc(-n2nnc3cnc(NCCCN4CCN(C)CC4)nc32)cc1 [A13, [3-(4-methoxy-phenyl)-3H-[1,2,3]triazolo[4,5-d]pyrimidin-5-yl]-[3-(4-methyl-piperazin-1-yl)-propyl]-amine]	1 to 5
CNc1ncc2nnn(-c3ccc(OC)cc3)c2n1 [A14, [3-(4-methoxy-phenyl)-3H-[1,2,3]triazolo[4,5-d]pyrimidin-5-yl]-methyl-amine]	1 to 5
COc1ccc(-n2nnc3cnc(NC4CC(C)(C)N(C)C(C)(C)C4)nc32)cc1 [A15, [3-(4-methoxy-phenyl)-3H-[1,2,3]triazolo[4,5-d]pyrimidin-5-yl]-(1,2,2,6,6-pentamethyl-piperidin-4-yl)-amine]	5 to 10
CCNc1ncc2nnn(-c3ccc(OC)cc3)c2n1 [A16, ethyl-[3-(4-methoxy-phenyl)-3H-[1,2,3]triazolo[4,5-d]pyrimidin-5-yl]-amine]	< 1
COc1ccc(-n2nnc3cnc(NC4CC(C)(C)NC(C)(C)C4)nc32)cc1 [A17, [3-(4-methoxy-phenyl)-3H-[1,2,3]triazolo[4,5-d]pyrimidin-5-yl]-(2,2,6,6-tetramethyl-piperidin-4-yl)-amine]	5 to 10
COc1ccc(-n2nnc3cnc(NC4CCN(C)CC4)nc32)cc1 [A18, [3-(4-methoxy-phenyl)-3H-[1,2,3]triazolo[4,5-d]pyrimidin-5-yl]-(1-methyl-piperidin-4-yl)-amine]	1 to 5
COc1ccc(-n2nnc3cnc(NC4C5CN(C)CC54)nc32)cc1 (centres unmarked) [A19, [3-(4-methoxy-phenyl)-3H-[1,2,3]triazolo[4,5-d]pyrimidin-5-yl]-(3-methyl-3-aza-bicyclo[3.1.0]hex-6-yl)-amine]	5 to 10
COc1ccc(-n2nnc3cnc(NC4CC(=O)N(C)C4)nc32)cc1 (centres unmarked) [A20, 4-[3-(4-methoxy-phenyl)-3H-[1,2,3]triazolo[4,5-d]pyrimidin-5-ylamino]-1-methyl-pyrrolidin-2-one]	1 to 5
COc1ccc(-n2nnc3cnc(NC4CCC4)nc32)cc1 [A21, cyclobutyl-[3-(4-methoxy-phenyl)-3H-[1,2,3]triazolo[4,5-d]pyrimidin-5-yl]-amine]	< 1
COc1ccc(-n2nnc3cnc(NC4CCc5[nH]ncc5C4)nc32)cc1 (centres unmarked) [A23, [3-(4-methoxy-phenyl)-3H-[1,2,3]triazolo[4,5-d]pyrimidin-5-yl]-(4,5,6,7-tetrahydro-1H-indazol-5-yl)-amine]	< 1
COc1ccc(-n2nnc3cnc(N[C@H]4C[C@H](O)C4)nc32)cc1 [A24, trans-3-[3-(4-methoxy-phenyl)-3H-[1,2,3]triazolo[4,5-d]pyrimidin-5-ylamino]-cyclobutanol]	< 1
COc1ccc(-n2nnc3cnc(N[C@H]4C[C@@H](O)C4)nc32)cc1 [A25, cis-3-[3-(4-methoxy-phenyl)-3H-[1,2,3]triazolo[4,5-d]pyrimidin-5-ylamino]-cyclobutanol]	< 1

Continued, values first:

IC50 [µM]	Structure (SMILES)
< 1	COc1ccc(-n2nnc3cnc(N[C@@H]4CC[C@@H](O)C4)nc32)cc1 (racemic) [A10, trans-3-[3-(4-methoxy-phenyl)-3H-[1,2,3]triazolo[4,5-d]pyrimidin-5-ylamino]-cyclopentanol]
< 1	O[C@@H]1CC[C@@H](Nc2ncc3nnn(-c4ccc(Br)cc4)c3n2)C1 (relative stereo) [A29, trans-3-[3-(4-bromo-phenyl)-3H-[1,2,3]triazolo[4,5-d]pyrimidin-5-ylamino]cyclopentanol]
< 1	Cn1cc(-c2ccc(-n3nnc4cnc(N[C@H]5CC[C@H](O)C5)nc43)nc2)cn1 (relative stereo) [A94, trans-3-{3-[5-(1-methyl-1H-pyrazol-4-yl)-pyridin-2-yl]-3H-[1,2,3]triazolo[4,5-d]pyrimidin-5-ylamino}-cyclopentanol]
< 1	COc1ccc(-n2nnc3cnc(N[C@H]4CC[C@@H](N(C)C)C4)nc32)cc1 (relative stereo) [A108, (cis)-N-[3-(4-methoxy-phenyl)-3H-[1,2,3]triazolo[4,5-d]pyrimidin-5-yl]-N′,N′-dimethyl-cyclopentane-1,3-diamine]
< 1	COc1ccc(-n2nnc3cnc(N[C@@H]4CC[C@H](CNC(=O)OC(C)(C)C)C4)nc32)cc1 (relative stereo) [A117, {(cis)-3-[3-(4-methoxy-phenyl)-3H-[1,2,3]triazolo[4,5-d]pyrimidin-5-ylamino]-cyclopentylmethyl}-carbamic acid tert-butyl ester]
< 1	CCOc1ccc(-n2nnc3cnc(N[C@@H]4CC[C@@H](O)C4)nc32)cn1 (relative stereo) [A206, (trans)-3-[3-(6-ethoxy-pyridin-3-yl)-3H-[1,2,3]triazolo[4,5-d]pyrimidin-5-ylamino]-cyclopentanol]
< 1	COCCn1cc(-c2ccc(-n3nnc4cnc(N[C@H]5CC[C@H](O)C5)nc43)cn2)cn1 (relative stereo) [A234, (trans)-3-(3-{6-[1-(2-methoxy-ethyl)-1H-pyrazol-4-yl]-pyridin-3-yl}-3H-[1,2,3]triazolo[4,5-d]pyrimidin-5-ylamino)-cyclopentanol]
< 1	COc1ccc(-n2nnc3cnc(N[C@H]4CC[C@H](SC)C4)nc32)cc1 (relative stereo) [A262, [3-(4-methoxy-phenyl)-3H-[1,2,3]triazolo[4,5-d]pyrimidin-5-yl]-((trans)-3-methylsulfanyl-cyclopentyl)-amine]
< 1	COc1ccc(-n2nnc3cnc(N[C@H]4CC[C@H](S(C)(=O)=O)C4)nc32)cc1 (relative stereo) [A263, ((trans)-3-methanesulfonyl-cyclopentyl)-[3-(4-methoxy-phenyl)-3H-[1,2,3]triazolo[4,5-d]pyrimidin-5-yl]-amine]
< 1	NC(=O)CCn1cc(-c2ccc(-n3nnc4cnc(N[C@H]5CC[C@H](O)C5)nc43)cc2)cn1 (relative stereo) [A268, 3-(4-{4-[5-(trans-3-hydroxy-cyclopentylamino)-[1,2,3]triazolo[4,5-d]pyrimidin-3-yl]-phenyl}-pyrazol-1-yl)-propionamide]
< 1	COc1ccc(-n2nnc3cnc(N[C@@H]4CC[C@H](C#N)C4)nc32)cc1 (relative stereo) [A275, cis-3-[3-(4-Methoxy-phenyl)-3H-[1,2,3]triazolo[4,5-d]pyrimidin-5-ylamino]-cyclopentanecarbonitrile]
< 1	CCOc1ccc(-n2nnc3cnc(N[C@H]4CC[C@H](n5ncccc5=O)C4)nc32)cc1 (relative stereo) [A287, 2-{(trans)-3-[3-(4-ethoxy-phenyl)-3H-[1,2,3]triazolo[4,5-d]-pyrimidin-5-ylamino]-cyclopentyl}-2H-pyridazin-3-one]
< 1	CC(C)(O)c1ccc(-n2nnc3cnc(N[C@@H]4CC[C@@H](O)C4)nc32)cc1 (relative stereo) [A290, (trans)-3-{3-[4-(1-Hydroxy-1-methyl-ethyl)-phenyl]-3H-[1,2,3]triazolo[4,5-d]pyrimidin-5-ylamino}-cyclopentanol]
< 1	COc1ccc(-n2nnc3cnc(NC(C)C)nc32)cc1 [A2, Isopropyl-[3-(4-methoxy-phenyl)-3H-[1,2,3]triazolo[4,5-d]pyrimidin-5-yl]-amine]
< 1	COc1ccc(-n2nnc3cnc(N[C@H]4CC[C@H](O)CC4)nc32)cc1 [A6, trans-4-[3-(4-methoxy-phenyl)-3H-[1,2,3]triazolo[4,5-d]pyrimidin-5-ylamino]-cyclohexanol]
< 1	COc1ccc(-n2nnc3cnc(NC(C)(C)C)nc32)cc1 [A7, tert-butyl-[3-(4-methoxy-phenyl)-3H-[1,2,3]triazolo[4,5-d]pyrimidin-5-yl]-amine]
< 1	COc1ccc(-n2nnc3cnc(NC4CCS(=O)(=O)C4)nc32)cc1 (centres unmarked) [A8, N-(1,1-dioxothiolan-3-yl)-3-(4-methoxyphenyl)triazolo[4,5-d]pyrimidin-5-amine]
< 1	COc1ccc(-n2nnc3cnc(NC4CCCC4)nc32)cc1 [A12, cyclopentyl-[3-(4-methoxy-phenyl)-3H-[1,2,3]triazolo[4,5-d]pyrimidin-5-yl]-amine]
